Reference: ChEMBL document CHEMBL1138903, “Secondary amides of sulfonylated 3-amidinophenylalanine. New potent and selective inhibitors of matriptase” (J Med Chem, 2006)

Key:
[1] = target: Urokinase-type plasminogen activator (Homo sapiens, UniProt P00749); experiment: Inhibition of uPA
[2] = target: Plasminogen (Homo sapiens, UniProt P00747); experiment: Inhibition of plasmin
[3] = target: T1, Prothrombin (Homo sapiens, UniProt P00734); experiment: Inhibition of thrombin
[4] = target: Coagulation factor X (Homo sapiens, UniProt P00742); experiment: Inhibition of f10a
[5] = target: T2, Suppressor of tumorigenicity 14 protein (Homo sapiens, UniProt Q9Y5Y6); experiment: Reduction of matriptase-catalyzed pro-HGF to HGF processing; assay type: functional
T2 sequence (Q9Y5Y6 whole entry): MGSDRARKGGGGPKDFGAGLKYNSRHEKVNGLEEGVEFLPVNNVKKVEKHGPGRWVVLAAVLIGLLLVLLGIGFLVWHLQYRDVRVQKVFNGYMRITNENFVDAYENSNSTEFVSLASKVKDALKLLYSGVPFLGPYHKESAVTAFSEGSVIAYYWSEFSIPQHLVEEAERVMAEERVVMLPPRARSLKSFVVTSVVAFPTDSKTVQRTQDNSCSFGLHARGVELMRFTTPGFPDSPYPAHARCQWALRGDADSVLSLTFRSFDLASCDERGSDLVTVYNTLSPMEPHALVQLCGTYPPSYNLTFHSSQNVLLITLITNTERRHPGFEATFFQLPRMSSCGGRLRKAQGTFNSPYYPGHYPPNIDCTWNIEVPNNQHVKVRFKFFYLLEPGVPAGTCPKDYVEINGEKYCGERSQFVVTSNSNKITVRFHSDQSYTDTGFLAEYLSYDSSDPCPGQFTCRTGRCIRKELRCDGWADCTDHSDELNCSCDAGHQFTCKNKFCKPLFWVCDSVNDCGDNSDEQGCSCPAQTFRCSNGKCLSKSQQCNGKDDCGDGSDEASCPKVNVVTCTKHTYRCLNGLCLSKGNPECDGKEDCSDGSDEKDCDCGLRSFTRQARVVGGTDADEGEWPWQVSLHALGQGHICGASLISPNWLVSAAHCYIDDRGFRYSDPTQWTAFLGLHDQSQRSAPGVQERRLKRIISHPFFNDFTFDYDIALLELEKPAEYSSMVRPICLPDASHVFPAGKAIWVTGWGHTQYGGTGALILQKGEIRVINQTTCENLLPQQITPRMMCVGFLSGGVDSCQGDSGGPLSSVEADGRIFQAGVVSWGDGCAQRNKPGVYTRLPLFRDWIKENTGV

[6] = target: T2, Suppressor of tumorigenicity 14 protein
[7] = tested on: PC-3; experiment: Reduction of median primary tumor growth of PC3 cell line xenografted in nude mouse at 5 mg/kg, ip; assay type: functional, Homo sapiens; parameters: scale not given: the % may be the effect or the level left; details: route intraperitoneal
[8] = tested on: PC-3; experiment: Reduction of dissemination into thorax in nude mouse xenografted with PC3 cell line at 5 mg/kg, ip; assay type: functional; parameters: scale not given: the % may be the effect or the level left; details: route intraperitoneal
[9] = Anticoagulant activity in blood by aPTT assay; assay type: functional, Homo sapiens
[10] = target: T1, Prothrombin; details: Blood
[11] = target: Coagulation factor VII/tissue factor (Homo sapiens) (UniProt P08709+P13726); details: Blood
Description: Anticoagulant activity in blood by PT assay

Sequence of Plasminogen (P00747 97-580 limits assumed): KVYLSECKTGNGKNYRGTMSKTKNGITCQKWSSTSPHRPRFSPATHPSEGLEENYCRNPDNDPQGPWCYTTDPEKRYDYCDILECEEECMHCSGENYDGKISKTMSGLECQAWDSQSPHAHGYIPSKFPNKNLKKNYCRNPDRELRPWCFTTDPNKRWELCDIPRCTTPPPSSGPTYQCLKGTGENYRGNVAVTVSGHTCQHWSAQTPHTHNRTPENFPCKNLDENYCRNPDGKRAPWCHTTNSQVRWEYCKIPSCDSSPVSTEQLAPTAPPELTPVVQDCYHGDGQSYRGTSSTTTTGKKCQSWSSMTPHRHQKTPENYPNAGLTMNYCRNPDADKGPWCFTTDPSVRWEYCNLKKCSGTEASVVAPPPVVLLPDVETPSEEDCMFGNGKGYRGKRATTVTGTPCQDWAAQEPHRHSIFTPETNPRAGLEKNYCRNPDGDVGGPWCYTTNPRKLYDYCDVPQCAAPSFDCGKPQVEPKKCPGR
Sequence of Plasminogen (P00747 581-810 limits assumed): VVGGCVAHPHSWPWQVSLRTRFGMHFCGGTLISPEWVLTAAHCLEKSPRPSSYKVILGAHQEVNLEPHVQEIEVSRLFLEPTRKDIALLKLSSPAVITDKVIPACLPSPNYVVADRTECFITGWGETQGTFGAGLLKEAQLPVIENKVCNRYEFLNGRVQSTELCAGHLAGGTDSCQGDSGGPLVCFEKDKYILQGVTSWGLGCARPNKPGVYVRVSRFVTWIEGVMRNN
Sequence of Coagulation factor X (P00742 41-179 limits assumed): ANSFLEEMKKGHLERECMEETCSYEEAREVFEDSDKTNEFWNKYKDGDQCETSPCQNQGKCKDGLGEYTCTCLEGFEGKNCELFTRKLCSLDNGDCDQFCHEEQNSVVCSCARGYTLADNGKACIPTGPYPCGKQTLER
Sequence of Coagulation factor X (P00742 235-488 limits assumed): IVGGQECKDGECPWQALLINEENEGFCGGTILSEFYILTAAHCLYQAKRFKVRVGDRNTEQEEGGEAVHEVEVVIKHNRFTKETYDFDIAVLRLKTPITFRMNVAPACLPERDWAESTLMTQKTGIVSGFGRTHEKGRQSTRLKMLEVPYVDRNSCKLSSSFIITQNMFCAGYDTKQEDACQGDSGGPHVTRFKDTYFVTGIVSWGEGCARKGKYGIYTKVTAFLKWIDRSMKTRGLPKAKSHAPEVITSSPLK

| Ki [1] [µM] | Ki [2] [µM] | Ki [3] [µM] | Ki [4] [µM] | IC50 [5] [µM] | Ki [6] [µM] | IC200 [10] [µM] | IC200 [11] [µM] | SMILES | Activity [7] [%] | Activity [8] [%] | IC200 [9] [µM] |
| --- | --- | --- | --- | --- | --- | --- | --- | --- | --- | --- | --- |
| 8.2 | 3.1 | 1.7 | 1.3 | 3 | 0.026 |  |  | N=C(N)c1cccc(C[C@H](NS(=O)(=O)c2ccc(C3CCCCC3)cc2)C(=O)N2CCN(C(=N)N)CC2)c1 |  |  |  |
| 1.3 | 20 | 0.11 | 27 |  |  | 0.32 | 3.8 | N=C(N)NCCC1CCN(C(=O)[C@H](Cc2cccc(C(=N)N)c2)NS(=O)(=O)c2ccc3ccccc3c2)CC1 | 17 | 53 | 2.7 |
| 3.6 | 2.4 | 27 | 21 |  | 0.0066 | > 10 | > 10 | N=C(N)c1cccc(C[C@H](NS(=O)(=O)c2cccc(NC(=O)CCN)c2)C(=O)N2CCC(CCN)CC2)c1 | 40 | 33 | >10 |
| 1.8 | 2.8 | 4 | 13 |  | 0.0015 | > 10 | > 10 | N=C(N)c1cccc(C[C@H](NS(=O)(=O)c2cccc(NC(=O)CCN)c2)C(=O)N2CCC(CCCN=C(N)N)CC2)c1 |  |  | >10 |
| 3.4 | 1.4 | 0.099 | 2.2 |  | 0.013 | 0.27 | 1.6 | N=C(N)NCCC1CCN(C(=O)[C@H](Cc2cccc(C(=N)N)c2)NS(=O)(=O)c2ccc(Oc3ccccc3)nc2)CC1 |  |  | 1.5 |
| 19 | 3.7 | 2.5 | 5.1 |  | 0.34 |  |  | N=C(N)NCCC(=O)N1CCN(C(=O)[C@H](Cc2cccc(C(=N)N)c2)NS(=O)(=O)c2cccc3ccccc23)CC1 |  |  |  |
| 1.2 | 0.94 | 16 | 6.3 |  | 0.38 |  |  | CC(C)c1cc(C(C)C)c(S(=O)(=O)N[C@@H](Cc2cccc(C(=N)N)c2)C(=O)N2CCC(C(=O)NCCN)CC2)c(C(C)C)c1 |  |  |  |
| 18 | 2.5 | 0.26 | 8.3 |  | 0.2 |  |  | CCC(C)(C)c1ccc(S(=O)(=O)N[C@@H](Cc2cccc(C(=N)N)c2)C(=O)N2CCN(C(=O)CCN=C(N)N)CC2)cc1 |  |  |  |
| 0.32 | 1 | 0.3 | 3.2 |  | 0.089 |  |  | CC(C)c1cc(C(C)C)c(S(=O)(=O)N[C@@H](Cc2cccc(C(=N)N)c2)C(=O)N2CCC(CCN=C(N)N)CC2)c(C(C)C)c1 |  |  |  |
| 43 | 12 | 2.6 | 130 |  | 0.4 |  |  | N=C(N)NCCC(=O)N1CCN(C(=O)[C@H](Cc2cccc(C(=N)N)c2)NS(=O)(=O)Cc2ccc3ccccc3c2)CC1 |  |  |  |
| 2.1 | 1.2 | 0.17 | 34 |  | 0.042 |  |  | N=C(N)NCCCC1CCN(C(=O)[C@H](Cc2cccc(C(=N)N)c2)NS(=O)(=O)c2ccc3ccccc3c2)CC1 |  |  |  |
| 1.7 | 5 | 6 | 9.5 |  | 0.0018 |  |  | N=C(N)c1cccc(C[C@H](NS(=O)(=O)c2cccc(NC(=O)CCN)c2)C(=O)N2CCC(CCN=C(N)N)CC2)c1 |  |  |  |
| 2.3 | 1.7 | 0.19 | 13 |  | 0.072 |  |  | N=C(N)c1cccc(C[C@H](NS(=O)(=O)c2cccc3ccccc23)C(=O)N2CCC(CCN=C(N)N)CC2)c1 |  |  |  |
| 0.6 | 1.2 | 1.8 | 10 |  | 0.0087 |  |  | N=C(N)NCCC(=O)Nc1ccc(S(=O)(=O)N[C@@H](Cc2cccc(C(=N)N)c2)C(=O)N2CCC(CCNC(=N)N)CC2)cc1 |  |  |  |
| 3.6 | 4.1 | 0.42 | 4.9 |  | 0.013 |  |  | N=C(N)NCCNC(=O)C1CCN(C(=O)[C@H](Cc2cccc(C(=N)N)c2)NS(=O)(=O)c2ccc3c(c2)C(=O)c2ccccc2C3=O)CC1 |  |  |  |
| 4.6 | 0.33 | 2.5 | 4.1 |  | 0.05 |  |  | CC(C)c1cc(C(C)C)c(S(=O)(=O)N[C@@H](Cc2cccc(C(=N)N)c2)C(=O)N2CCCN(C(=O)C3CCN(C(=N)N)CC3)CC2)c(C(C)C)c1 |  |  |  |

| SMILES | Ki [1] [µM] | Ki [2] [µM] | Ki [3] [µM] | Ki [4] [µM] | IC50 [5] [µM] | Ki [6] [µM] | IC200 [10] [µM] | IC200 [11] [µM] | Activity [7] [%] | Activity [8] [%] | IC200 [9] [µM] |
| --- | --- | --- | --- | --- | --- | --- | --- | --- | --- | --- | --- |
| N=C(N)c1cccc(C[C@H](NS(=O)(=O)c2ccc(NC(=O)CCN)cc2)C(=O)N2CCC(CCN)CC2)c1 | 0.82 | 1.2 | 8.8 | 15 |  | 0.028 |  |  |  |  |  |
